Key:
[1] = test system: rat air pouch model of crystal-induced arthropathy (MSU); test: Rat air pouch therapeutic model, Example 10 (Compounds 3 and 4 in combination with colchicine); assay type: in vivo
Protocol: Sodium hydroxide (40 g, Fisher Scientific) was dissolved in de-ionized water (100 mL, dH2O) to provide a 10N solution. Uric acid (16 g, Sigma) was added to de-ionized water (3400 mL) containing sodium hydroxide solution (11.8 mL, 10N) and heated to 60° C. with constant stirring. […] The resulting clear solution was cooled to 4-8° C., resulting in the formation of crystals, which were isolated by filtration, washed three times with de-ionized wa[…]) and dried at 37° C. The dried mono sodium urate crystals were sifted into an air-tight container for storage. […] Methylcellulose (0.4 g, Sigma) was dissolved in de-ionized water (100 mL) to provide a 0.4% solution used as vehicle. […] Test compounds were suspended in vehicle to provide the desired concentrations, and diluted accordingly. […] The animals were in apparent good health with no clinical signs of disease or distress. The rats were placed in quarantine with daily inspections, ear notched for identification purposes and shaved at the nape of the neck. The rats were anesthetized (isoflurane), and the nape of the neck was cleansed with 70% isopropanol (Butler Animal Health Supply) followed by povidone-iodine solution (Ricca Chemical Co.). Sterile air (30 mL, 0.2 μm, Millipore) was injected subcutaneously using a 23 G×11⁄2 inch needle fixed to a 30 mL syringe. The rats were returned to routine housing with no adverse reactions observed. The rats were anesthetized (isoflurane), and the nape of the neck was cleansed with 70% isopropanol (Butler Animal Health Supply) followed by povidone-iodine solution (Ricca Chemical Co.). Sterile air (15 mL, 0.11 μm, Millipore) was injected subcutaneously using a 23 G×11⁄2 inch needle fixed to a 20 mL syringe. The rats were returned to routine housing with no adverse reactions observed. The rats were weighed and sorted into treatment groups based on average body weight. As appropriate, the rats were dosed orally with test compound or vehicle (saline alone). […] Control group was injected with 15 mL sterile saline (vehicle). The injection sites were closed (collodion, Macron) and the rats returned to their cages with no adverse effects observed. Four hours after MSU/saline injection, the rats were anesthetized and heparinized saline (5 mL, 10 U/mL) was injected into the air pouch. […] An aliquot of the exudate was transferred to green Eppendorf tubes for total white blood cell (WBC) measurement. After allowing the MSU crystals to settle out for ten minutes, an aliquot of the exudate was transferred to heparinized microtainer tubes (Becton Dickinson) for differential white blood cell counts. The remainder of the exudate was centrifuged and an aliquot of the supernatants was dispensed to labeled clear Eppendorf tubes and stored at -80° C. The rats were exsanguinated into pre-chilled serum separator tubes, processed to serum, and 0.5 mL aliquot was stored at -80° C. in labeled Eppendorf tubes. […] 140 rats were used, divided into 14 groups of 10 animals, as follows: [table]

CXCR-2 = biological target: T1, CXCR-2 (Homo sapiens, UniProt P25025); conditions: cited from earlier work
T1 sequence (P25025 1-360): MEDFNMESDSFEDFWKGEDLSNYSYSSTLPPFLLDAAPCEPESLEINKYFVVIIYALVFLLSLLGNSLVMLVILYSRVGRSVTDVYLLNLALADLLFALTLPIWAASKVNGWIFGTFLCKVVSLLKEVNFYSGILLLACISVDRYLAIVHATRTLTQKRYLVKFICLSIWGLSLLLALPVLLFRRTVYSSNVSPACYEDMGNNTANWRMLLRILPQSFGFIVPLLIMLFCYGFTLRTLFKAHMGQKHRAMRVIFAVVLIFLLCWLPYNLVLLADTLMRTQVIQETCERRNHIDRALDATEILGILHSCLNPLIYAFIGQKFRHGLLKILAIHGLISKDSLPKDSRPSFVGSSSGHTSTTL

[2] = 10 μmol/kg PO + Colchicine 0.3 mg/kg SC, Groups 9, 14

Row | SMILES | inhibit CXCR-2 (CXCR-2) | Avg Exudate Vol [1, 2] [mL] | Avg Tot WBC [1, 2] | Neutrophils [1, 2] | Avg Exudate Vol ([1]; 10 μmol/kg PO, Groups 6, 11) [mL] | Avg Tot WBC ([1]; 10 μmol/kg PO, Groups 6, 11) | Neutrophils ([1]; 10 μmol/kg PO, Groups 6, 11) | Avg Exudate Vol ([1]; 30 μmol/kg PO, Groups 7, 12) [mL] | Avg Tot WBC ([1]; 30 μmol/kg PO, Groups 7, 12) | Neutrophils ([1]; 30 μmol/kg PO, Groups 7, 12) | Avg Exudate Vol ([1]; 100 μmol/kg PO, Groups 8, 13) [mL] | Avg Tot WBC ([1]; 100 μmol/kg PO, Groups 8, 13) | Neutrophils ([1]; 100 μmol/kg PO, Groups 8, 13) | other results
1 | COc1cc2c(c(OC)c1OC)-c1ccc(OC)c(=O)cc1[C@@H](NC(C)=O)CC2 [Colchicine, COLCHICINE, reference compound] |  |  |  |  |  |  |  |  |  |  |  |  |  | Avg Exudate Vol ([1]; 0.3 mpk SC, Group 3): 11.7 mL; Avg Tot WBC ([1]; 0.3 mpk SC, Group 3): 180 ×10^6; Neutrophils ([1]; 0.3 mpk SC, Group 3): 71.5 ×10^6; Avg Exudate Vol ([1]; 0.5 mpk SC, Group 4): 8.9 mL; Avg Tot WBC ([1]; 0.5 mpk SC, Group 4): 35 ×10^6; Neutrophils ([1]; 0.5 mpk SC, Group 4): 70.7 ×10^6; Avg Exudate Vol ([1]; 1.0 mpk SC, Group 5): 7.3 mL; Avg Tot WBC ([1]; 1.0 mpk SC, Group 5): 9.8 ×10^6; Neutrophils ([1]; 1.0 mpk SC, Group 5): 25.9 ×10^6
2 | CC[C@@H](Nc1c(Nc2cccc(C(=O)N(C)C)c2O)c(=O)c1=O)c1ccc(C)o1 [Compound 2, (R)-2-hydroxy-N,N-dimethyl-3-((2-((1-(5-methylfuran-2-yl)propyl)amino)-3,4-dioxocyclobut-1-en-1-yl)amino)benzamide] | shown to inhibit CXCR-2 |  |  |  |  |  |  |  |  |  |  |  |  | 
3 | C[C@@H](Oc1cc(NS(=O)(=O)N2CCC2)nc(SCc2cccc(F)c2F)n1)[C@@H](O)CO [Compound 3, N-(2-((2,3-difluorobenzyl)thio)-6-(((2R,3S)-3,4-dihydroxybutan-2-yl)oxy)pyrimidin-4-yl)azetidine-1-sulfonamide] | shown to inhibit CXCR-2 | 9.5 | 68 ×10^6 | 72.6 ×10^6 | 10.0 | 84 ×10^6 | 69.2 ×10^6 | 8.8 | 59 ×10^6 | 30.7 ×10^6 | 6.9 | 40 ×10^6 | 35.1 ×10^6 | Avg Exudate Vol ([1]; 3 μmol/kg PO, Group 10): 11.5 mL; Avg Tot WBC ([1]; 3 μmol/kg PO, Group 10): 120 ×10^6; Neutrophils ([1]; 3 μmol/kg PO, Group 10): 71.1 ×10^6
4 | CC1CN(S(=O)(=O)Nc2cc(O[C@H](C)[C@@H](O)CO)nc(SCc3ccc(F)cc3)n2)C1 [Compound 4, N-(6-(((2R,3S)-3,4-dihydroxybutan-2-yl)oxy)-2-((4-fluorobenzyl)thio)pyrimidin-4-yl)-3-methylazetidine-1-sulfonamide] | shown to inhibit CXCR-2 | 7.6 | 46 ×10^6 | 61.5 ×10^6 | 11.5 | 130 ×10^6 | 68.4 ×10^6 | 8.2 | 25 ×10^6 | 60.4 ×10^6 | 7.0 | 18 ×10^6 | 26.2 ×10^6 | 
